In US10308631B2, “Selective anti-cancer compounds” (NATIONAL UNIVERSITY OF SINGAPORE, priority 2015, dated 2019):

Key:
[1] = system: non-transformed normal and oncogene-transformed human fibroblast BJ cell lines; experiment: Chemoprotection from paclitaxel, Annexin V/PI FACS; format: cell-based; details: paclitaxel treatment alone, 50 nM
Procedure: Normal and transformed BJ cells were treated with Compound 25 at 5 μM. 48 h after treatment, cells were further treated with (A) 50 nM paclitaxel (PTX) or (B) etoposide, at the concentrations shown, for additional 48 or 72 h, respectively. A: cells were collected, stained with Annexin V together with propidium iodide (PI) and subjected to FACS analysis. […] Student's t-test was performed to determine the statistical significance (***=P<0.0001, **=P<0.001, *=P<0.05, n.s.=no significance).
The chemoprotective efficacies of the Compounds in Group 2 were further evaluated by measuring their ability to protect non-transformed normal cells, but not cancer and oncogene-transformed counterparts, from the most well-known as well as clinically-relevant chemotherapeutic agents, paclitaxel and etoposide. To determine this, isogenic non-transformed normal and oncogene-transformed human fibroblast BJ cell lines, cultured in DMEM supplemented with 10% FBS, were pre-treated with Compound 25 (a166—Group 2) at 5 μM. 48 h after treatment, cells were further treated with paclitaxel (PTX; FIG. 13A) or etoposide (FIG. 13B) for an additional 72 h. […] For etoposide, cell viability was determined using MTT assay and plotted in comparison with DMSO control vehicle with mean values±S.D. (n=4).

[2] = system: HCT-15 human colon adenocarcinoma xenografts; experiment: Tumour xenograft efficacy, tumour volume; format: in vivo, mice; details: HCT15 xenografts; intravenously 40 mg/kg, 3 times every 4 days; vs vehicle
Procedure: A, B: is a graphical representation of tumour volumes estimated periodically as indicated. Mice bearing established tumour xenografts using HCT15 or MDA-MB-231 cells were treated orally (PO) or intraperitoneally (IP) twice a day with the indicated doses of Compound 1 or Compound 16 for 12 or 15 days. Paclitaxel (PTX) was given intravenously at dose of 40 mg/kg, 3 times every 4 days. Error bars show ±S.D. from mean tumour volumes obtained from 6 mice. Student's t-test was performed to determine the statistical significance (*=p<0.005). C: is a bar graph showing quantification of cells (n>100 per condition) with misaligned chromosomes and multipolar mitotic-spindles. […] tumour sections treated with Compound 16 (80 mg/kg) or control vehicle for 12 days were stained with anti-β-tubulin antibodies and DAPI. The percentage of cells with misaligned chromosomes and multipolar mitotic-spindles was quantified and plotted with mean values±S.D.
Mice bearing established tumor xenografts using HCT15 or MDA-MB-231 cells were treated orally (PO) or intraperitoneally (IP) twice a day with the indicated doses of Compound 1 or its derivative Compound 16 (b5) for 12 or 15 days, respectively. For comparison, paclitaxel (PTX) was given intravenously to mice bearing established tumour xenografts using HCT15 at dose of 40 mg/kg, 3 times every 4 days.

[3] = system: HeLa cells (mitotic spindles, β-tubulin/DAPI); experiment: Immunofluorescence analysis of mitotic spindles and chromosomes; format: cell-based, human; details: 6 h, Compound 1 2.5 μM, CQ 15 or 25 μM
Procedure: HeLa cells, treated with Compound 1 (a131) at 2.5 μM (FIG. 3b), chloroquine (CQ) at 15 μM (FIG. 3c) or 25 μM (FIG. 3d), or DMSO (FIG. 3a) for 6 h, were fixed in methanol and subjected to immunofluorescence analysis using antibodies against β-tubulin to visualize proper formation of mitotic spindles. The condensed mitotic chromosomes were visualized by counterstaining with DAPI. Only Compound 1 (a131)-treated HeLa cells arrested in mitosis with misaligned chromosomes and disorganized spindles (FIG. 3b). The bars in FIGS. 3a-d represent 5 μm in length.
To confirm the inhibitory mitotic progression ability, HeLa cervical cancer cells as cultured above were treated with Compound 1 (2.5 μM, DMSO), CQ (15 or 25 μM, DMSO) or DMSO for 6 h. The treated cells were fixed in methanol and subjected to immunofluorescence analysis using antibodies against β-tubulin (Abcam, Cat#ab52623) to visualize proper formation of mitotic spindles. The condensed mitotic chromosomes were visualized by counterstaining with DAPI.

CC(=O)O[C@H]1C(=O)[C@@]2(C)[C@H]([C@H](OC(=O)c3ccccc3)[C@]3(O)C[C@H](OC(=O)[C@H](O)[C@@H](NC(=O)c4ccccc4)c4ccccc4)C(C)=C1C3(C)C)[C@]1(OC(C)=O)CO[C@@H]1C[C@@H]2O [paclitaxel, reference compound]
selectivity of cell death for oncogene-transformed BJ cells [1]: showed a minimal selectivity for oncogene-transformed BJ cells | anti-tumour effect (tumour volume) [2]: did not show significant anti-tumour effects

CCN(CC)CCCC(C)Nc1ccnc2cc(Cl)ccc12 (stereo not drawn) [CQ, chloroquine, reference compound]
mitotic arrest, chromosome alignment and mitotic spindles [3]: no such effects were seen
